Assay results reported in patent publication US12303490B2, “Compositions and methods for suppressing and/or treating neurodegenerative diseases and/or a clinical condition thereof” (CK Regeon Inc., priority 2019, dated 2025).
Values belong to the compound of their own block, whether it stands above or below them.

Legend:
CXXC5-DVL interaction = test: In vitro CXXC5-DVL PPI inhibition (binding) assay, library screening; settings: compound 30 μM; FITC-tagged PTD-DBMP and DVL-PDZ domain; fluorescence intensity
Description: Screening for compounds that inhibit the CXXC5-DVL interaction. […] CELL. DEATH. DIFFER. […] Briefly, 5 mg/ml purified DVL-PDZ domain was incubated in each well of a 96-well Maxibinding Immunoplate (SPL, Seoul, Korea) at 4° C. for 16 h. After the addition of 10 μM FITC-tagged PTD-DBMP to each well, each compound in the chemical library or control (DMSO) was treated to the well at a final concentration of 30 μM. The fluorescence intensity was measured using a Fluorstar Optima microplate reader (BGM Lab Technologie, Ortenberg, Germany) and normalized as follows: “(‘compounds-treated group’−‘blank’)/(‘DMSO-treated control’−‘blank’)*100”.

[1] = tested on: β-catenin, CXXC5 and p-GSK3β (S9) in H4/SWE cells; test: Western blot assay in H4/SWE cells; format: cell-based; settings: FIG. 9A
Description: Western blot assay. H4 and H4/SWE Cells were ground with a mortar and pestle before lysis in RIPA buffer (150 mM NaCl, 10 mM Tris, pH 7.2, 0.1% SDS, 1.0% Triton X-100, 1% sodium deoxycholate, and 5 mM EDTA). Samples were separated on 6-12% SDS polyacrylamide gels and transferred onto PROTRAN nitrocellulose membranes (Schleicher and Schuell Co.). The membranes were blocked with PBS containing 5% non-fat dry skim milk and 0.07% (vol/vol) Tween 20 and incubated with antibody specific for β-catenin (1:1,000, Santa Cruz Biotechnology, Inc.), CXXC5 (1:500, Santa Cruz Biotechnology, Inc.), p-GSK3β(S9) (1:500, Santa Cruz Biotechnology, Inc.). The membranes were then incubated with horseradish peroxidase-conjugated anti-rabbit (1:5,000, Bio-Rad Laboratories) or anti-mouse (1:5000, Cell Signaling Technology) IgG secondary antibody. Protein bands were visualized with enhanced chemiluminescence (GE Healthcare) using a luminescent image analyzer, LAS-3000 (Fujifilm). Western blot bands were analyzed using Multi-Gauge V3.0 software (Fujifilm).

Wnt/β-catenin pathway = test: pTOPFlash reporter assay in HEK293 cells; settings: HEK293 cells harboring the pTOPFlash reporter
serum active GLP-1 [2] = test: Serum active GLP-1 in NASH mouse models (STZ-induced, MCD-induced); format: in vivo, mice; settings: FIG. 6A-6B
Description: FIG. 6A. Graph illustrating the serum active GLP-1 levels in NCD-mice (“Chow”) and RFD-fed, STZ-induced NASH mice that were treated with vehicle, A3334, A3051, selonsertib, and ocaliva.
FIG. 6B. Graph illustrating the serum active GLP-1 levels in NCD-mice (“Chow”) and RFD-fed, methionine-choline deficient diet (MCD)-induced NASH mice that were treated with vehicle, A3334, A3051, selonsertib, ocaliva (“OCA”), and A3486.
(§1) Blood chemistry. Total blood of mice was collected by cardiac puncture. The blood was allowed to clot for 30 min and was then centrifuged for 30 min at 3,000×g to obtain supernatant to measure active GLP-1 concentration. ELISA assay kits were used to assess serum active GLP-1 (7-36).

[3] = tested on: β-catenin in H4/SWE cells; test: Immunocytochemical analysis of β-catenin in H4/SWE cells; format: cell-based; settings: FIG. 9B
Description: Immunocytochemical analysis. H4 or H4/SWE cells treated with each compound were washed with PBS and fixed in 4% (wt/vol) paraformaldehyde (PFA) in PBS for 15 min at room temperature. The cells were then washed with PBS and permeabilized with 0.1% (vol/vol) Triton X-100 in PBS for 15 min. After washing with PBS, the cells were incubated with 10% bovine serum albumin (BSA) in PBS for 30 min and then with antibodies specific for β-catenin (1:100; BD) overnight at 4° C. The cells were washed in PBS and incubated with Alexa Fluor 488—conjugated IgG secondary antibody (1:400; Molecular Probes) at room temperature for 1 h. Cell nuclei were counterstained with DAPI for 10 min and the stained samples were examined under a LSM510 META microscope.

[4] = tested on: rat neuronal stem cells (NSCs); test: Neural stem cell (NSC) differentiation, cell morphology; format: cell-based; settings: 0, 1, 5 and 10 μM; 24 hours; medium with bFGF
Description: Neural stem cell (NSCs) culture. NSCs were extracted from the forebrain of E14.5 rats and maintained in an undifferentiated state by culturing in medium containing 10 ng/ml of bFGF (Peprotech). Undifferentiated NSCs (1×10^5) were treated with of each compound (10 μM) and cell morphology was assessed by capturing black and white images of the cells after 24 h.
Referring now to FIG. 7A-7B, NSCs were isolated form E14 mice embryos, and maintained in the maintenance medium (supplemented) with bFGF and EGF. The neuronal differentiation was induced by treating different concentrations of A3051. Cell morphologies were captured at 24 hours after treatment of the indirubin analog 3051 using a bright-field optical microscope.

[5] = tested on: secreted human amyloid β-42 in H4/SWE cells; test: Human Aβ42 ELISA assay in H4/SWE cells; format: cell-based; settings: 24 h, FIG. 10
Description: Human Aβ42 ELISA assay. H4 or H4/SWE cells were cultured in Dulbecco's Modified Eagle's Medium (DMEM, Gibco) containing 10% fetal bovine serum (FBS) and grown to confluence in a 5% CO2 and 95% air humidified atmosphere. The cells were seeded in 6-well plate in DMEM supplemented with 10% FBS and allowed to adhere overnight. The cells were treated with each compound (1˜20 uM) for 24 h and collected in 1 ml of medium. The samples were treated with protease inhibitor cocktail (PIC) to avoid the degradation of Amyloid β by protease and centrifuged at 3000 rpm for 3 min. Experiments were performed according to the guidance of Human Aβ42 ELISA Kit protocol (Invitrogen). The amount of secreted Amyloid β was normalized by measuring total protein concentration.

serum active GLP-1 [6] = test: Serum active GLP-1 ELISA in HFD-mice; format: in vivo; settings: compared with mice fed on NCD, FIG. 4A
Description: as §1
(§2) Animals. The generation of Cxxc5^−/− mice has been described previously. Cxxc5 heterozygous mice were intercrossed for four generations to obtain littermate wild-type and Cxxc5^−/− mice and were maintained on a C57BL/6 background. Six-week-old Cxxc5^+/+ and Cxxc5^−/− mice were fed HFD for 8 weeks. Wild-type male C57BL/6 mice (KOATECH, Seoul, Korea) were fed HFD consisting of 60% calories from fat (Research Diet, D12492) for 8 weeks. To validate that the insulin resistance mouse model was successfully established, fasting glucose levels were assessed with a One Touch Ultra glucometer (LifeScan). Subsequently, each HFD-fed mouse with a fasting glucose level higher than 16.7 mmol/L was orally administered A3334 (25 mg kg^−1), sitagliptin (50 mg kg^−1), or metformin (100 mg kg^−1) each day for 5 days at weeks 8 and 12. After the removal of the drugs, mice were maintained for 3 weeks on the HFD. To monitor pancreas regeneration, six-week-old Cxxc5^+/+ and Cxxc5^−/− mice were fed an HFD as above. […]

serum active GLP-1 [7] = test: Serum active GLP-1 ELISA in HFD-fed, STZ-induced diabetes mice; format: in vivo
Description: as §1, §2

[8] = tested on: GLP-1 and other Wnt/β-catenin signaling target genes (Tcf712, Axin2, Dvl1, Wisp1, Fosl1); test: qPCR of GLP-1 and other Wnt/β-catenin signaling target genes in epiWAT of HFD-mice; format: in vivo; settings: phenotypes as observed in HFD-fed Cxxc5−/− mice, FIG. 2C
Description: Quantitative real-time polymerase chain reaction (PCR). Total RNA was extracted from ground tissue powder using TRIzol reagent (Invitrogen) according to the manufacturer's instructions. Reverse transcription was performed with M-MLV reverse transcriptase (Invitrogen) using 2 μg of total RNA. Synthesized cDNA was diluted to a concentration of 100 ng/μl. Quantitative PCR analyses were performed in the Rotor-gene Q real-time PCR cycler (Qiagen) using SYBR green reagent (Qiagen) with conditions of 95° C. for 10 min followed by 40 cycles at 95° C. for 5 s and 60° C. for 15 s. Relative quantification of mRNA levels was estimated using the comparative Ct method (ΔΔCt). Glp-1 mRNA values were normalized with respect to GAPDH.
Animals. The generation of Cxxc5^−/− mice has been described previously. Cxxc5 heterozygous mice were intercrossed for four generations to obtain littermate wild-type and Cxxc5^−/− mice and were maintained on a C57BL/6 background. Six-week-old Cxxc5^+/+ and Cxxc5^−/− mice were fed HFD for 8 weeks. Wild-type male C57BL/6 mice (KOATECH, Seoul, Korea) were fed HFD consisting of 60% calories from fat (Research Diet, D12492) for 8 weeks. To validate that the insulin resistance mouse model was successfully established, fasting glucose levels were assessed with a One Touch Ultra glucometer (LifeScan). […]

Structure (SMILES): COc1ccc(C2CC(C(F)(F)F)n3ncc(C(=O)O)c3N2)cc1OC (stereo not shown) [Compound 2]
CXXC5-DVL inhibitory activity (%) (CXXC5-DVL interaction): 90.63%

Structure (SMILES): Cc1cc(C)c2c(O)nc(SCC(=O)c3ccc(O)c(O)c3)nc2n1 [Compound 3]
CXXC5-DVL inhibitory activity (%) (CXXC5-DVL interaction): 88.19%

Structure (SMILES): O=C(O)C1Sc2[nH]c(=O)sc2C2c3cc(Br)cc(Br)c3OC(=O)C12 (stereo not shown) [Compound 5]
CXXC5-DVL inhibitory activity (%) (CXXC5-DVL interaction): 90.48%

Structure (SMILES): O=C1Nc2cc(Br)ccc2/C1=C1/Nc2ccccc2/C1=N\O [Compound 8, 6-Bromoindirubin-3′-oxime, reference compound]
level of β-catenin (western blot) [1]: restored
p-GSK3β (S9) (western blot) [1]: increased
activation of Wnt/β-catenin pathway (reporter assay) (Wnt/β-catenin pathway): showed effectiveness

Structure (SMILES): Br.CN1CCc2cc(O)cc3c2[C@H]1Cc1ccc(O)c(O)c1-3 [Compound 9]
CXXC5-DVL inhibitory activity (%) (CXXC5-DVL interaction): 89.41%

Structure (SMILES): NC(Cc1cc(O)c(O)cc1O)C(=O)O (stereo not shown) [Compound 10]
CXXC5-DVL inhibitory activity (%) (CXXC5-DVL interaction): 90.32%

Structure (SMILES): O=c1cc(O)cc(/C=C/c2ccc(O)c(O)c2)o1 [Compound 11]
CXXC5-DVL inhibitory activity (%) (CXXC5-DVL interaction): 90.05%

Structure (SMILES): O=c1c(O)c(-c2cc(O)c(O)c(O)c2)oc2cc(O)cc(O)c12 [Compound 13]
CXXC5-DVL inhibitory activity (%) (CXXC5-DVL interaction): 85.22%

Structure (SMILES): CC(N)(Cc1ccc(O)c(O)c1)C(=O)O (stereo not shown) [Compound 14]
CXXC5-DVL inhibitory activity (%) (CXXC5-DVL interaction): 85.22%

Structure (SMILES): O=c1c(O)c(-c2ccc(O)cc2O)oc2cc(O)cc(O)c12 [Compound 15]
CXXC5-DVL inhibitory activity (%) (CXXC5-DVL interaction): 85.41%

Structure (SMILES): CN(C)c1ccc(O)c2c1C[C@H]1C[C@H]3[C@H](N(C)C)C(O)=C(C(N)=O)C(=O)[C@@]3(O)C(O)=C1C2=O.Cl [Compound 16]
CXXC5-DVL inhibitory activity (%) (CXXC5-DVL interaction): 87.9%

Structure (SMILES): Oc1cc(O)cc(/C=C/c2ccc(O)c(O)c2)c1 [Compound 17]
CXXC5-DVL inhibitory activity (%) (CXXC5-DVL interaction): 85.25%

Structure (SMILES): Cl.O=C(OCCN1CCOCC1)C1(c2ccccc2)CCCCC1 [Compound 18]
CXXC5-DVL inhibitory activity (%) (CXXC5-DVL interaction): 86.81%

Structure (SMILES): Cc1cc(F)c(C(=O)Nc2cccc(-c3nncn3C(C)C)n2)cc1-n1cnc(C2CC2)c1 [selonsertib, reference compound]
active GLP-1 expression in blood serum (serum active GLP-1 [2]): did not have any effect

Structure (SMILES): N[C@@H](CC(=O)N1CCn2c(nnc2C(F)(F)F)C1)Cc1cc(F)c(F)cc1F [sitagliptin, reference compound]
relative expression levels of GLP-1 and other Wnt/β-catenin signaling target genes in epiWAT [8]: did not

Second part, led by results:

CXXC5-DVL inhibitory activity (%) (CXXC5-DVL interaction): 87.58%
Structure (SMILES): COC(=O)C1=C(C)N/C(=C/c2cc(C)n(-c3ccccc3F)c2C)C1=O [Compound 4]

CXXC5-DVL inhibitory activity (%) (CXXC5-DVL interaction): 58.24%
Structure (SMILES): CCN(CC)S(=O)(=O)c1ccc(OC)c(Nc2cc(-c3ccccc3)nc(C)n2)c1 [Compound 6]

CXXC5-DVL inhibitory activity (%) (CXXC5-DVL interaction): 90.87%
Structure (SMILES): COc1ccc(C2CC(=O)C3=C(C2)Nc2onc(C)c2C3c2ccc(O)c(O)c2)cc1OC (stereo not shown) [Compound 7]

p-GSK3β (S9) (western blot) [1]: increased
CXXC5-DVL inhibitory activity (%) (CXXC5-DVL interaction): 89%
Structure (SMILES): O=C1Nc2ccccc2/C1=C1/Nc2ccccc2/C1=N\O [Compound 12, Indirubin-3′-oxime, reference compound]
level of β-catenin (western blot) [1]: restored
activation of Wnt/β-catenin pathway (reporter assay) (Wnt/β-catenin pathway): showed effectiveness

p-GSK3β (S9) (western blot) [1]: increased
Structure (SMILES): CO/N=C1/C(=C2/C(=O)Nc3cc(Cl)c(Cl)cc32)Nc2ccccc21 [Compound A3051, 5,6-dichloroindirubin-3′-methoxime]
level of CXXC5 (western blot) [1]: decreased
level of β-catenin (western blot) [1]: restored
active GLP-1 expression in blood serum (serum active GLP-1 [2]): significantly rescued (increased)
nuclear translocation of β-catenin [3]: increased
neural differentiation of NSCs (cell morphology) [4]: induced neural differentiation
secretion of Aβ-42 [5]: inhibited

p-GSK3β (S9) (western blot) [1]: increased
Structure (SMILES): COc1ccc2c(c1)/C(=C1/Nc3ccccc3/C1=N\O)C(=O)N2 [Compound A3334, 5-Methoxyindirubin-3′-oxime]
level of CXXC5 (western blot) [1]: decreased
level of β-catenin (western blot) [1]: restored
serum active GLP-1 levels (serum active GLP-1 [6]): restored
active GLP-1 expression in blood serum (serum active GLP-1 [2]): significantly rescued (increased)
serum active GLP-1 levels (serum active GLP-1 [7]; STZ-induced diabetic HFD-mice, compared with mice fed on NCD, FIG. 4B): restored
active GLP-1 expression in blood serum compared to the sitagliptin treatment (serum active GLP-1 [7]; compared to the effect of sitagliptin (positive control)): significantly rescued (increased)
relative expression levels of GLP-1 and other Wnt/β-catenin signaling target genes in epiWAT [8]: restored the phenotypes
nuclear translocation of β-catenin [3]: increased
secretion of Aβ-42 [5]: inhibited

p-GSK3β (S9) (western blot) [1]: increased
Structure (SMILES): O=C1Nc2ccccc2/C1=C1/Nc2ccccc2C1=O [Indirubin, reference compound]
level of β-catenin (western blot) [1]: restored
